Each compound was assayed against T1, IL-17A (Homo sapiens, UniProt Q16552) (assay: Inhibition of IL-17A induced IL-6 release from dermal fibroblast cell line (HDF cell line assay)). Conditions: HDF cells stimulated with IL-17A 50 pM + TNF-α 25 pM; IL-6 release measured by HTRF.
T1 sequence (Q16552 24-155): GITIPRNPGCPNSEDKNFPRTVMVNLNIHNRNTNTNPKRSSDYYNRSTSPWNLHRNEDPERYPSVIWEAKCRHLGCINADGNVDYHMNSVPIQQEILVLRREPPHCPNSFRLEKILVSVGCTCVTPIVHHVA
Type: cell-based
Excerpt: Inhibition of IL-17A Induced IL-6 Release from Dermal Fibroblast Cell Line
The purpose of this assay is to test the neutralising ability to IL-17 proteins, in a human primary cell system. Stimulation of normal human dermal fibroblasts (HDF) with IL-17 alone produces only a very weak signal but in combination with certain other cytokines, such as TNFα, a synergistic effect can be seen in the production of inflammatory cytokines, i.e. IL-6.
HDFs were stimulated with IL-17A (50 pM) in combination with TNF-α (25 pM). The resultant IL-6 response was then measured using a homogenous time-resolved FRET kit from Cisbio. The kit utilises two monoclonal antibodies, one labelled with Eu-Cryptate (Donor) and the second with d2 or XL665 (Acceptor). The intensity of the signal is proportional to the concentration of IL-6 present in the sample (Ratio is calculated by 665/620×104).
The ability of a compound to inhibit IL-17 induced IL-6 release from human dermal fibroblasts is measured in this assay.
HDF cells (Sigma #106-05n) were cultured in complete media (DMEM+10% FCS+2 mM L-glutamine) and maintained in a tissue culture flask using standard techniques. Cells were harvested from the tissue culture flask on the morning of the assay using TrypLE (Invitrogen #12605036). The TrypLE was neutralised using complete medium (45 mL) and the cells were centrifuged at 300×g for 3 minutes. The cells were re-suspended in complete media (5 mL) counted and adjusted to a concentration of 3.125×10^4 cells/mL before being added to the 384 well assay plate (Corning #3701) at 40 μL per well. The cells were left for a minimum of three hours, at 37° C./5% CO2, to adhere to the plate.
Compounds were serially diluted in DMSO before receiving an aqueous dilution into a 384 well dilution plate (Greiner #781281), where 5 μL from the titration plate was transferred to 45 μL of complete media and mixed to give a solution containing 10% DMSO.
Mixtures of TNFα and IL-17 cytokine were prepared in complete media to final concentrations of TNFα 25 pM/IL-17A 50 pM, then 30 μL of the solution was added to a 384 well reagent plate (Greiner #781281).
L from the aqueous dilution plate was transferred to the reagent plate containing 30 μL of the diluted cytokines, to give a 2.5% DMSO solution. The compounds were incubated with the cytokine mixtures for 5 h at 37° C. After the incubation, 10 μL was transferred to the assay plate, to give a 0.5% DMSO solution, then incubated for 18-20 h at 37° C./5% CO2.
From the Cisbio IL-6 FRET kit (Cisbio #62IL6PEB) europium cryptate and Alexa 665 were diluted in reconstitution buffer and mixed 1:1, as per kit insert. To a white low volume 384 well plate (Greiner #784075) were added FRET reagents (10 μL), then supernatant (10 μL) was transferred from the assay plate to Greiner reagent plate. The mixture was incubated at room temperature for 3 h with gentle shaking (<400 rpm) before being read on a Synergy Neo 2 plate reader (Excitation: 330 nm; Emission: […]).

| IC50 [nM] | Structure (SMILES) |
| --- | --- |
| 63.1 | Cc1nonc1C(=O)N[C@H](c1cn2ncc(C3(C(=O)NCC(C)(F)F)CCOCC3)cc2n1)C1CCC(F)(F)CC1 [Example 14, N-[(S)-(4,4-Difluorocyclohexyl){7-[4-(2,2-difluoropropylcarbamoyl)tetrahydropyran-4-yl]imidazo[1,2-b]pyridazin-2-yl}methyl]-4-methyl-1,2,5-oxadiazole-3-carboxamide] |
| 20 | Cc1nonc1C(=O)N[C@H](c1cn2ncc(C(CC(F)F)c3nnnn3CC(F)(F)F)cc2n1)C1CCC(F)(F)CC1 (single isomer, unassigned) [Example 15, N-[(S)-(4,4-Difluorocyclohexyl)(7-{(1S*)-3,3-difluoro-1-[1-(2,2,2-trifluoroethyl)tetrazol-5-yl]propyl}imidazo[1,2-b]pyridazin-2-yl)methyl]-4-methyl-1,2,5-oxadiazole-3-carboxamide] |
| 6.31 | CC(F)(F)CNC(=O)C1(c2cnn3cc([C@@H](NC(=O)c4nonc4C4CC4)C4CCC(F)(F)CC4)nc3c2)CCOCC1 [Example 17, 4-Cyclopropyl-N-[(S)-(4,4-difluorocyclohexyl){7-[4-(2,2-difluoropropylcarbamoyl)-tetrahydropyran-4-yl]imidazo[1,2-b]pyridazin-2-yl}methyl]-1,2,5-oxadiazole-3-carboxamide] |
| 39.8 | Cc1nonc1C(=O)N[C@H](c1cn2ncc(C(CC(F)F)C(=O)NCC(F)(F)F)cc2n1)C1CCC(F)(F)CC1 (stereo partly drawn) [Example 1, N-[(S)-(4,4-Difluorocyclohexyl){7-[3,3-difluoro-1-(2,2,2-trifluoroethylcarbamoyl)-propyl]imidazo[1,2-b]pyridazin-2-yl}methyl]-4-methyl-1,2,5-oxadiazole-3-carboxamide] |
| 25.1 | Cc1nonc1C(=O)N[C@H](c1cn2ncc(C3CN(C4COC4)CC3C(=O)N3CC(F)(F)C(F)(F)C3)cc2n1)C1CCC(F)(F)CC1 (single isomer, unassigned) [Example 13] |
| 158 | CC(C)n1ncnc1C(=O)N[C@H](c1cn2ncc(C(CC(F)F)C(=O)NCC(F)(F)F)cc2n1)C1CCC(F)(F)CC1 (stereo partly drawn) [Example 8, N-[(S)-(4,4-Difluorocyclohexyl){7-[3,3-difluoro-1-(2,2,2-trifluoroethylcarbamoyl)-propyl]imidazo[1,2-b]pyridazin-2-yl}methyl]-2-isopropyl-1,2,4-triazole-3-carboxamide] |
| 31.6 | Cc1nonc1C(=O)N[C@H](c1cn2ncc(C(CC(F)F)c3nnc4ccc(F)cn34)cc2n1)C1CCC(F)(F)CC1 (single isomer, unassigned) [Example 12] |
| 25.1 | Cc1nonc1C(=O)N[C@H](c1cn2ncc(C3CC(F)(F)CCN3C(=O)C34CC(F)(C3)C4)cc2n1)C1CCC(F)(F)CC1 (single isomer, unassigned) [Example 16] |
| 63.1 | Cc1nonc1C(=O)N[C@H](c1cn2ncc(C3(C(=O)NCC(F)(F)F)CCC(F)(F)CC3)cc2n1)C1CCC(F)(F)CC1 [Example 9, N-[(S)-(4,4-Difluorocyclohexyl){7-[4,4-difluoro-1-(2,2,2-trifluoroethylcarbamoyl)-cyclohexyl]imidazo[1,2-b]pyridazin-2-yl}methyl]-4-methyl-1,2,5-oxadiazole-3-carboxamide] |
| 25.1 | CC(C)n1nccc1C(=O)N[C@H](c1cn2ncc(C(CC(F)F)C(=O)NCC(F)(F)F)cc2n1)C1CCC(F)(F)CC1 (stereo partly drawn) [Example 7, N-[(S)-(4,4-Difluorocyclohexyl){7-[3,3-difluoro-1-(2,2,2-trifluoroethylcarbamoyl)-propyl]imidazo[1,2-b]pyridazin-2-yl}methyl]-2-isopropylpyrazole-3-carboxamide] |
| 10 | CNC(=O)[C@H](NC(=O)C(CC(F)F)c1cnn2cc([C@@H](NC(=O)c3nonc3C)C3CCC(F)(F)CC3)nc2c1)C(C)C (stereo partly drawn) [Example 2, N-{(S)-(4,4-difluorocyclohexyl)[7-(3,3-difluoro-1-{[(1R)-2-methyl-1-(methylcarbamoyl)-propyl]carbamoyl}propyl)imidazo[1,2-b]pyridazin-2-yl]methyl}-4-methyl-1,2,5-oxadiazole-3-carboxamide] |
| 20 | CCc1nonc1C(=O)N[C@H](c1cn2ncc(C(CC(F)F)C(=O)NCC(F)(F)F)cc2n1)C1CCC(F)(F)CC1 (stereo partly drawn) [Example 5, N-[(S)-(4,4-Difluorocyclohexyl){7-[3,3-difluoro-1-(2,2,2-trifluoroethylcarbamoyl)-propyl]imidazo[1,2-b]pyridazin-2-yl}methyl]-4-ethyl-1,2,5-oxadiazole-3-carboxamide] |
| 316 | Cc1nonc1C(=O)NC(c1cn2ncc(C(CC(F)F)C(=O)NCC(F)(F)F)cc2n1)C(C1CC1)C1CC1 (stereo not shown) [Example 11, N-(2,2-Dicyclopropyl-1-{7-[3,3-difluoro-1-(2,2,2-trifluoroethylcarbamoyl)propyl]-imidazo[1,2-b]pyridazin-2-yl}ethyl)-4-methyl-1,2,5-oxadiazole-3-carboxamide] |

Reference: patent US20240140951A1, “IMIDAZOPYRIDAZINE DERIVATIVES AS IL-17 MODULATORS” (UCB Biopharma SRL, priority 2020, published 2024)
